Ki data for four compounds are collected here from BindingDB's records for PubMed 9190866 (Smithkline Beecham Pharmaceuticals, 1997).

Each structure is given as a SMILES string. Where a SMILES comes first, the peptide text is derived from it. [ ]: non-standard residue; d: D form. NMeF = CN[C@@H](Cc1ccccc1)C(=O)O

One experiment has as its target Substance-P receptor (Homo sapiens, UniProt P25103).
The target of the next experiment is T1, Neuromedin-K receptor (Homo sapiens, UniProt P29371).
T1 sequence (P29371 whole entry): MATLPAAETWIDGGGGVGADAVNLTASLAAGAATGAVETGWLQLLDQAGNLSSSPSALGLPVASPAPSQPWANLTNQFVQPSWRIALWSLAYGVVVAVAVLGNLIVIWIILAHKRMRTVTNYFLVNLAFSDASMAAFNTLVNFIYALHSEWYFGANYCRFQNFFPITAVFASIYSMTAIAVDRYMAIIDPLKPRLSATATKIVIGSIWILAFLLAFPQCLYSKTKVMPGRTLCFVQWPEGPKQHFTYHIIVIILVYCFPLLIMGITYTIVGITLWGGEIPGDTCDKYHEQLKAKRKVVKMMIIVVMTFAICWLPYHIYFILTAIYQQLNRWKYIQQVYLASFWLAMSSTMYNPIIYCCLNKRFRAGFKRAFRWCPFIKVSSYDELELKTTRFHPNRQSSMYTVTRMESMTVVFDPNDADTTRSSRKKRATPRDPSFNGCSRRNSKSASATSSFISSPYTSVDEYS

A further experiment has as its target T2, Substance-K receptor (Homo sapiens, UniProt P21452).
T2 sequence (P21452 whole entry): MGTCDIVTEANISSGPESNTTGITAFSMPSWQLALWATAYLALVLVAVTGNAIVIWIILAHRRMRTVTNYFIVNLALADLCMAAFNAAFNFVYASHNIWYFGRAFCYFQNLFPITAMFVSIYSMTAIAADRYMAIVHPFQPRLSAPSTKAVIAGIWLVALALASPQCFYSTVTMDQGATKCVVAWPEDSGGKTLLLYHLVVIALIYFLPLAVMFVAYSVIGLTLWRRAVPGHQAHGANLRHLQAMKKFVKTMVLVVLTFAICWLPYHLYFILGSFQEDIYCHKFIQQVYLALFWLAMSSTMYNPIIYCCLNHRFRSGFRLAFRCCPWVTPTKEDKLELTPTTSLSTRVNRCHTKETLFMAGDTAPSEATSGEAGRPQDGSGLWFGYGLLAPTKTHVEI

Sequence of Substance-P receptor (P25103 whole entry): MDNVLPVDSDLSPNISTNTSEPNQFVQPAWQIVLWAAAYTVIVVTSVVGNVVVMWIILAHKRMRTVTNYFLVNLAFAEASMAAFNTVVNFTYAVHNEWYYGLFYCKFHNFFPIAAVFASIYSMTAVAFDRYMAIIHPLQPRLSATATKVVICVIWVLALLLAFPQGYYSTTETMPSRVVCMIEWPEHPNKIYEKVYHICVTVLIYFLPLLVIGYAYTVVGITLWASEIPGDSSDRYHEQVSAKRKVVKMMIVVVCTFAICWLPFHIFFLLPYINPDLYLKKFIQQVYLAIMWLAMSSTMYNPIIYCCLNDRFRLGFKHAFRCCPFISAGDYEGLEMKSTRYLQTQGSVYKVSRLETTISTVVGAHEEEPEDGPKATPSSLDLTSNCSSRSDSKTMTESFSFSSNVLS

Turning to `CSCC[C@H](NC(=O)[C@H](CC(C)C)NC(=O)CNC(=O)[C@H](Cc1ccccc1)N(C)C(=O)[C@H](Cc1ccccc1)NC(=O)[C@H](Cc1ccccc1)NC(=O)[C@H](CC(=O)O)NC(=O)[C@H](Cc1cnc[nH]1)NC(=O)[C@H](CCSC)NC(=O)[C@@H](N)CC(=O)O)C(N)=O` [NKB [MePhe7]] (H-DMHDFF[NMeF]GLM-NH2), the Ki (in general, the dissociation constant of the complex between target and ligand, obtained from inhibition or displacement) at Substance-P receptor was more than 10000 nM; on Neuromedin-K receptor it was 0.31 nM.
Regarding `COc1ccccc1CN[C@H]1CCCN[C@H]1c1ccccc1` [(+/-)(2-Methoxy-benzyl)-(2-phenyl-piperidin-3-yl)-amine], the Ki at Substance-K receptor and at Neuromedin-K receptor was more than 10000 nM each time.
Turning to `CC(=O)NC1(c2ccccc2)CCN(CCC(CN(C)C(=O)c2ccccc2)c2ccc(Cl)c(Cl)c2)CC1` (stereo not drawn) [SR 48968], the Ki came out at 454 nM on Substance-P receptor, 0.23 nM on Substance-K receptor and 707 nM at Neuromedin-K receptor.
Compound `CSCC[C@H](NC(=O)[C@H](CC(C)C)NC(=O)CNC(=O)[C@@H](NC(=O)[C@H](Cc1ccccc1)NC(=O)[C@H](Cc1ccccc1)NC(=O)[C@H](CC(=O)O)NC(=O)[C@H](Cc1c[nH]cn1)NC(=O)[C@H](CCSC)NC(=O)[C@@H](N)CC(=O)O)C(C)C)C(N)=O` [NSC_5311312] yielded a Ki at Substance-K receptor of 16.5 nM.
